Measured values reported in ChEMBL document CHEMBL1201862, “PubChem BioAssay data set” (2004).
Calls of active or inactive are those of the source.

How the values were obtained:
[1] = molecular target: E3 ubiquitin-protein ligase Mdm2 (Homo sapiens, UniProt Q00987); assay: enhancers of MDM2-luciferase reporter signal, concentration-effect titration, project on inhibitors of MDM2 ubiquitin ligase, cellular assay, luminescent readout, 384-well plate format (AID 1394); format: functional;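 further: MDM2 E3 inhibitors raise luminescence so EC50 is for signal enhancement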
Chain of E3 ubiquitin-protein ligase Mdm2 (Q00987 whole entry): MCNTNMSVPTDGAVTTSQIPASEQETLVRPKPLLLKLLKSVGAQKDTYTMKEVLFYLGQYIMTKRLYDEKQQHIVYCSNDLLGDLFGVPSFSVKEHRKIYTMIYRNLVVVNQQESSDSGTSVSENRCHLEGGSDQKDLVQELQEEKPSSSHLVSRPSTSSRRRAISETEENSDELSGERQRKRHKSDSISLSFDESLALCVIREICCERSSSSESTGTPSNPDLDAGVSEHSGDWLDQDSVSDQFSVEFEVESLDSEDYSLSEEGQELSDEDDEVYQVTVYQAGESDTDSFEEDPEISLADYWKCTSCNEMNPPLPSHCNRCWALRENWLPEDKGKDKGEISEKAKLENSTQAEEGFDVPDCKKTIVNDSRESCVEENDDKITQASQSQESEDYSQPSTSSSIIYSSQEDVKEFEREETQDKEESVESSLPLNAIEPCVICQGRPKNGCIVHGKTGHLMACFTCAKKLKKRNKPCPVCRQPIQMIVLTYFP

[2] = inhibitors of intracellular T. cruzi replication, confirmation, NIH3T3 host cells, beta-gal luminescence (AID 2044); format: functional, cell-based;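 further: intracellular parasites grown in NIH/3T3 mouse fibroblasts as host cells; luminescent beta-galactosidase reporter signal from transgenic T. cruzi replicating inside host cells; inhibitors lower the luminescence signal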
Vero [3] = assay: host cell cytotoxicity of antiviral hits, dose response, cytotoxicity control for West Nile virus antiviral project, secondary assay (AID 1650); format: functional; conditions: Chlorocebus sabaeus
Vero [4] = assay: cells; format: functional; conditions: Chlorocebus sabaeus
[5] = cytotoxicity in HEK-293T cells, dose response, cytotoxicity control for TCR NF-kB inhibitor project, luminescence, T-cell screen hits (AID 489026); format: functional, cell-based;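 further: cells exposed to compound about 14 hours before the viability readout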
[6] = cytotoxicity toward NIH3T3 fibroblasts, dose response, counter-screen, cell-based, ATP luminescence, mouse fibroblasts (AID 2010); format: functional;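 further: cells exposed to compound for about 90 hours before reading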
[7] = Luminescence-based dose response cell-based high throughput screening assay for cytotoxic compounds using the IEC-6 intestinal epithelial cell line. [Related pubchem assays: 1858 (Summary AID.), 1825 (Counterscreen.), 1907 (Confirmation screen.)]; format: functional
[8] = Luminescence Cell-Based Dose Retest to Confirm Inhibitors of Cancer Stem Cells. [Related pubchem assays (depositor defined):AID2717, AID2721]; format: functional; conditions: Homo sapiens
[9] = molecular target: T1, Replicative DNA helicase DnaB (Mycobacterium tuberculosis, UniProt P9WMR3); assay: DnaB intein splicing inhibitors, dose response, biochemical, cell-free fluorescence (AID 449749); format: functional
T1 sequence (P9WMR3 whole entry): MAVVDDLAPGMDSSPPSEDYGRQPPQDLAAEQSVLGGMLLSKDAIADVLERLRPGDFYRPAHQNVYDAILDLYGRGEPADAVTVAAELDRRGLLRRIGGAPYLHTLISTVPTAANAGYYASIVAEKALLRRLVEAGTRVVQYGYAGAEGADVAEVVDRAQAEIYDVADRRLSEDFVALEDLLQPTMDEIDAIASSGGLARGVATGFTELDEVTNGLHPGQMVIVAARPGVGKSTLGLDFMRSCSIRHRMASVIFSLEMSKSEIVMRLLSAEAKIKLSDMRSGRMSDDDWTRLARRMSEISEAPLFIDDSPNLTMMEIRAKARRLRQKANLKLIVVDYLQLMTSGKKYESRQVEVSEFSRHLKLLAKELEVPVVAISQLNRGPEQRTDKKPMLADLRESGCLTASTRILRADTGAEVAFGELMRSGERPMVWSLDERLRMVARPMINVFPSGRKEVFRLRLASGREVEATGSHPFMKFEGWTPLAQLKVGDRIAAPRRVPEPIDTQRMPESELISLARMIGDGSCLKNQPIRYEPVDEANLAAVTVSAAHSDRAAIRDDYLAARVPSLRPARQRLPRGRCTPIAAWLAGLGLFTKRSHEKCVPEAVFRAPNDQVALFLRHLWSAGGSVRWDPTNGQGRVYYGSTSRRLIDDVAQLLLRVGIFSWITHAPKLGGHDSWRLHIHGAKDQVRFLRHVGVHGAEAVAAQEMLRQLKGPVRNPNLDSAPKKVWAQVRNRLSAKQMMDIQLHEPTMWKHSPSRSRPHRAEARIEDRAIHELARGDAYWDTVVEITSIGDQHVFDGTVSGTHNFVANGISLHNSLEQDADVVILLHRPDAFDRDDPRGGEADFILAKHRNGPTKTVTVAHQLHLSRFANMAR

[10] = molecular target: Peroxisome proliferator-activated receptor gamma/Nuclear receptor coactivator 1 (Homo sapiens, UniProt P37231); assay: TR-FRET dose response biochemical High Throughput Screening assay for agonists of the steroid receptor coactivator 1 (SRC-1) recruitment by the peroxisome proliferator-activated receptor gamma (PPAR gamma): non-selective agonists. [Related pubchem assays (depositor defined):AID1300, AID1808, AID504735, AID631]; format: protein assay
Protein RecA = molecular target: T2, Protein RecA (Mycobacterium tuberculosis, UniProt P9WHJ3); assay: Fluorescence Cell-Free Homogeneous Dose Retest to Identify Inhibitors of RecA-Intein Splicing Activity. [Related pubchem assays (depositor defined):AID2097, AID2223, AID489010, AID492950]; format: functional
T2 sequence (P9WHJ3 whole entry): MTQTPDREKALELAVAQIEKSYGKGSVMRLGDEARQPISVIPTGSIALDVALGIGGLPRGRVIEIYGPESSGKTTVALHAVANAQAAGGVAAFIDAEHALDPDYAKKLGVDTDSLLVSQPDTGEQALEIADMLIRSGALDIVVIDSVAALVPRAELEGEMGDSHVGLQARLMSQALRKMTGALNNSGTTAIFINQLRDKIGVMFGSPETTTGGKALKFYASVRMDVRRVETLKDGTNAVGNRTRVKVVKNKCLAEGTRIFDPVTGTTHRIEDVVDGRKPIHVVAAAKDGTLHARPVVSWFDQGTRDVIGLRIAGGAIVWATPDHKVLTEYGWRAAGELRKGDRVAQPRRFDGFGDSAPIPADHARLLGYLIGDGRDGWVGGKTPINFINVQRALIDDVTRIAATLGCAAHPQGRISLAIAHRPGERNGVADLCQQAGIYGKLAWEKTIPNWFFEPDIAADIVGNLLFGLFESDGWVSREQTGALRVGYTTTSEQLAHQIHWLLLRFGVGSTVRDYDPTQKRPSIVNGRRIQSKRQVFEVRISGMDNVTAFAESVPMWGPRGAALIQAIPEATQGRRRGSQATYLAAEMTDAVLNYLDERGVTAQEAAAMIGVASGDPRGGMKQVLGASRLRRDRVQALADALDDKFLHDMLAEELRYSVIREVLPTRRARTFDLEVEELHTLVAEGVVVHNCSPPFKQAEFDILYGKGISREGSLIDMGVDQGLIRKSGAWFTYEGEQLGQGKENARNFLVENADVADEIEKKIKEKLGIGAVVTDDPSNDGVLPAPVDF

[11] = molecular target: Peroxisome proliferator-activated receptor gamma/Nuclear receptor coactivator 2 (Homo sapiens, UniProt P37231); assay: (§1) TR-FRET dose response biochemical High Throughput Screening assay for agonists of the steroid receptor coactivator 2 (SRC-2) recruitment by the peroxisome proliferator-activated receptor gamma (PPAR gamma): non-selective agonists. [Related pubchem assays: 1297, 1032 ]; format: functional
[12] = molecular target: Peroxisome proliferator-activated receptor gamma/Nuclear receptor coactivator 3 (Homo sapiens, UniProt P37231); assay: as §1, with “3 (SRC-3)” for “2 (SRC-2)”, “1301 (Confirmation screen.), 1048 (Primary screen.)]” for “1297, 1032 ]”; format: functional
Chain of Peroxisome proliferator-activated receptor gamma/Nuclear receptor coactivator 3 (P37231 whole entry): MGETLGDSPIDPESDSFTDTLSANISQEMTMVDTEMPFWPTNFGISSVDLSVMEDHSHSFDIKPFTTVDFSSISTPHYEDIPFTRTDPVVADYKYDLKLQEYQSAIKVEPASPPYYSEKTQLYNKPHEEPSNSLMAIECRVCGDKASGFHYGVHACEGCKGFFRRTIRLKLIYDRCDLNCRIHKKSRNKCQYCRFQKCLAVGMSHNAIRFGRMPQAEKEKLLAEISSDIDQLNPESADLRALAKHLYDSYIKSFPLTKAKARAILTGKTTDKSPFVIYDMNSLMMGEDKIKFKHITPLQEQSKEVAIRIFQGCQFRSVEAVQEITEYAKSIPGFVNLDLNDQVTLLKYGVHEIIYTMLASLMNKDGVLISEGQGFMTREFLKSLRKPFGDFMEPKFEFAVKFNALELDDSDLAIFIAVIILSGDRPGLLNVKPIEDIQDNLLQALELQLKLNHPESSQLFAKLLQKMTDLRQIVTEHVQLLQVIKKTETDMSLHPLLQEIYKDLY
Chain of Peroxisome proliferator-activated receptor gamma/Nuclear receptor coactivator 3 (Q9Y6Q9 whole entry, further chain): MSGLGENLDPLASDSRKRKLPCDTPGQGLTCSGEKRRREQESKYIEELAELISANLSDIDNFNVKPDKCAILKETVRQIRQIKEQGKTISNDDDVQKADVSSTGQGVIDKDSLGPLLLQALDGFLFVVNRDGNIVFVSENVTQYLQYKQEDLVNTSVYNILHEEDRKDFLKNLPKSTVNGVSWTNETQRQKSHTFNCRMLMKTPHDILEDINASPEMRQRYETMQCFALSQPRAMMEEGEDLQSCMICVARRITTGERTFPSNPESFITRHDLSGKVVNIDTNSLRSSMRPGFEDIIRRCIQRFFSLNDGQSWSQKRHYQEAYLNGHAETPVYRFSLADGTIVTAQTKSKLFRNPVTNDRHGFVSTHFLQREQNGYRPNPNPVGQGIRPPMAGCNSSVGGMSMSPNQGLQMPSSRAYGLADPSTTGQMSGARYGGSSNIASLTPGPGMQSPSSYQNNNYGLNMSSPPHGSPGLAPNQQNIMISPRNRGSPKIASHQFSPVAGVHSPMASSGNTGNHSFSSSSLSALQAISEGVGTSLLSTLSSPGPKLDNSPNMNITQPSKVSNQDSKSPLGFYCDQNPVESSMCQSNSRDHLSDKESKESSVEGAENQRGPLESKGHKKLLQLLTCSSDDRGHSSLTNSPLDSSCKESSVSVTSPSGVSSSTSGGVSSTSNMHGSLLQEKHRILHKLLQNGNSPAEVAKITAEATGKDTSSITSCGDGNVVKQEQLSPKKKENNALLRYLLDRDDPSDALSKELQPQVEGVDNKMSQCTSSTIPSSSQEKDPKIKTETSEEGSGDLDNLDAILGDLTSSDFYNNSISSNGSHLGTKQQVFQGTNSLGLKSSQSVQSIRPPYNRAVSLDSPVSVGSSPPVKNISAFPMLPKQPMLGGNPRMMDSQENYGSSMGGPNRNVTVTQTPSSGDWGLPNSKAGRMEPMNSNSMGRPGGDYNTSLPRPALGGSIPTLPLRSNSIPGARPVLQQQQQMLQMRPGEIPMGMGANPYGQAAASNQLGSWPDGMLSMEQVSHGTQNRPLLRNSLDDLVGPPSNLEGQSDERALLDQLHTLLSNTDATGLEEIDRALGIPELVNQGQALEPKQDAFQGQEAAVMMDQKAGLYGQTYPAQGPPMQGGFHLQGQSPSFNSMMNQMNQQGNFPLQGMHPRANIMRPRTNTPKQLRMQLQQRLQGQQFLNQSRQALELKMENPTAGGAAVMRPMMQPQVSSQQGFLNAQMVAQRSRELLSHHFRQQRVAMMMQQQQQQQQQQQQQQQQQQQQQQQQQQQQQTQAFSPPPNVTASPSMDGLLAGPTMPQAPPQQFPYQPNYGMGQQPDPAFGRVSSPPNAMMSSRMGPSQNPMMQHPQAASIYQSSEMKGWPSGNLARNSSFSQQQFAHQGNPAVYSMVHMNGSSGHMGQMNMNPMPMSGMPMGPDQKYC

[13] = cytotoxicity in KRAS-transformed pancreatic duct cells, primary screen, cell-based, fluorescence, HTS (AID 431); format: functional; conditions: Homo sapiens;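 further: cell line used: HPDE-C7K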
Fatty acid synthase [14] = molecular target: T3, Fatty acid synthase (Homo sapiens, UniProt P49327); assay: FAS thioesterase domain inhibitors, dose response, biochemical, kinetic fluorescence intensity (AID 624326); format: functional;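 further: rate of fluorescence rise from hydrolysis of a fluorogenic O-methyl fluorescein ester substrate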
T3 sequence (P49327 whole entry, the tested form may be a part): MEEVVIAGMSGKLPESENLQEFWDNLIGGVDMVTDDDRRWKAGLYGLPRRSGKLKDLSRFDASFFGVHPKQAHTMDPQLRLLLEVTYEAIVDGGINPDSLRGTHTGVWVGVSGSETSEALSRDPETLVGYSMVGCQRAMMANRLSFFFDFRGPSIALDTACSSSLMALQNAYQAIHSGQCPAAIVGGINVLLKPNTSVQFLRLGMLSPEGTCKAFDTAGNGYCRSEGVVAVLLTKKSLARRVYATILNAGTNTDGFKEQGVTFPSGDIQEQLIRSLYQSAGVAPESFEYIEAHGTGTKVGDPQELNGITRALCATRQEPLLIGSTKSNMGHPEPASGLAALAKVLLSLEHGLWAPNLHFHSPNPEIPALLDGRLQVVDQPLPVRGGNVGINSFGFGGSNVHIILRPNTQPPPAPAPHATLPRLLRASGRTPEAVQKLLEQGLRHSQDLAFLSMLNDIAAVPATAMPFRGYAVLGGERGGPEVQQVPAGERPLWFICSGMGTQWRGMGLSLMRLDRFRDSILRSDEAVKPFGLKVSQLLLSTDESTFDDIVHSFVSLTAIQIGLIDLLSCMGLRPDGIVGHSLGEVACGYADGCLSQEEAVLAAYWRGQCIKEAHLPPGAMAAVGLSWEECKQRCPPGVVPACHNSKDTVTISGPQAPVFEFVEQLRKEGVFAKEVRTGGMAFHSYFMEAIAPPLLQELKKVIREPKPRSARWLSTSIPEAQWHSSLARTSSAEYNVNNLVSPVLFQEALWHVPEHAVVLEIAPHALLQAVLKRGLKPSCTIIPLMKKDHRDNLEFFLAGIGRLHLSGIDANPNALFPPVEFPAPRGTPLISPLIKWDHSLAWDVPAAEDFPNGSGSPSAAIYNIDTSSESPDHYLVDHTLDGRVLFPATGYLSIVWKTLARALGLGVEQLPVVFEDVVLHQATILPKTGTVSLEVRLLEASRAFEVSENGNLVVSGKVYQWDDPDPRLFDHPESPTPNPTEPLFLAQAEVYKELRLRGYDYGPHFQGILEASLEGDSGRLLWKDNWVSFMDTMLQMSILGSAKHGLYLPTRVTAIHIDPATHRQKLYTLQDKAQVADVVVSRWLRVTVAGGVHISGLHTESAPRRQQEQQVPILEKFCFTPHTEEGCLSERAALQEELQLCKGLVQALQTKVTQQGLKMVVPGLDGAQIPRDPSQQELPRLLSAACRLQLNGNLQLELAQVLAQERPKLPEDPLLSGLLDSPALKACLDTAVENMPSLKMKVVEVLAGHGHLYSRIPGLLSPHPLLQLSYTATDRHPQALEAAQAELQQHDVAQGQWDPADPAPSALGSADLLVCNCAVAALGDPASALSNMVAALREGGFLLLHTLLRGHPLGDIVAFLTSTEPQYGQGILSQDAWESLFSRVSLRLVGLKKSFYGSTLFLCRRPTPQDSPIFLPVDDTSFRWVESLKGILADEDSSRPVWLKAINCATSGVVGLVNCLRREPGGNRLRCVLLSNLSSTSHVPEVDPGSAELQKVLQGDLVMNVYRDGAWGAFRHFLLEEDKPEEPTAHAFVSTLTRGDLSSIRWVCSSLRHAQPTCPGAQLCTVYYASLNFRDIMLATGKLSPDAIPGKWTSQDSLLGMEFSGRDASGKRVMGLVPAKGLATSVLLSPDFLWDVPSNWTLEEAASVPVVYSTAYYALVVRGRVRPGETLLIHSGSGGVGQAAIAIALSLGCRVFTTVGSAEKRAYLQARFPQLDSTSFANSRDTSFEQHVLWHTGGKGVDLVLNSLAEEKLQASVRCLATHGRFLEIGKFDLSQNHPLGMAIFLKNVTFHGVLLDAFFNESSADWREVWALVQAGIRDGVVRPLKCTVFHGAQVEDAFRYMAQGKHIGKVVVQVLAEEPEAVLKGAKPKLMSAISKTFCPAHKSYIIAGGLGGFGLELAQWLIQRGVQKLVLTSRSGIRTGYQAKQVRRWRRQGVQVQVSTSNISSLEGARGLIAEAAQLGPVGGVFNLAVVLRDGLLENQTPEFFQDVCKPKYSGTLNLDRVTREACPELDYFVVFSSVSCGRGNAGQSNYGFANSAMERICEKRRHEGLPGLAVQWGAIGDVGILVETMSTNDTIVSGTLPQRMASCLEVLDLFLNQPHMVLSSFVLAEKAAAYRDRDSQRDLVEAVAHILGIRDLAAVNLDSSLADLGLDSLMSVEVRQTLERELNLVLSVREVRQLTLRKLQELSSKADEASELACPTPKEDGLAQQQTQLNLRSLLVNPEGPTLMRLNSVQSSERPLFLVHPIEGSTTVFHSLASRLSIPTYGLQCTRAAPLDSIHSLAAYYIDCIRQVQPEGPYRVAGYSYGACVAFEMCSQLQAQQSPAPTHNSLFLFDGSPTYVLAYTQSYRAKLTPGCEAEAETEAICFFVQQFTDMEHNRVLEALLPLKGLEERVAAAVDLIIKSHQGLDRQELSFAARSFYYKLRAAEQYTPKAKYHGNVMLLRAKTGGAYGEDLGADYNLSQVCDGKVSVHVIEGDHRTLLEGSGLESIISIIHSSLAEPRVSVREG

[15] = microbe, parasite or virus in culture; format: functional; conditions: Mycobacterium tuberculosis
Fatty acid synthase [16] = molecular target: T3, Fatty acid synthase; assay: FAS thioesterase domain inhibitors, dose response, biochemical, endpoint fluorescence intensity, uHTS hits (AID 624327); format: functional;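 further: fluorescence from hydrolysis of an O-methyl fluorescein acyl ester substrate by the enzyme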
[17] = cytotoxicity in HPDE-C7 cells, cell-based, fluorescence, HTS (AID 430); format: functional; conditions: Homo sapiens
[18] = M. tuberculosis growth inhibition, HTS (AID 449762); format: functional
[19] = molecular target: Glucose-6-phosphate 1-dehydrogenase (Homo sapiens, UniProt P11413); assay: human G6PD enzyme inhibitors, dose response, selectivity assay for P. falciparum G6PD inhibitor project, biochemical, fluorescence (AID 504792); format: functional
[20] = inhibitors of Vif binding to APOBEC3G peptide, primary screen, biochemical, TR-FRET, GST-Vif 1-94, biotin-A3G peptide, dose response retest (AID 1117319); format: functional;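 further: TR-FRET signal of purified GST-Vif binding a biotinylated A3G peptide; inhibitors lower the FRET signal by blocking Vif and A3G binding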
Protein Tat = molecular target: T4, Protein Tat (Human immunodeficiency virus type 1 group M subtype B (isolate HXB2)(HIV-1), UniProt P04608); format: functional;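 further: tat binding to TAR RNA read out by fluorescence polarization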
T4 sequence (P04608 whole entry): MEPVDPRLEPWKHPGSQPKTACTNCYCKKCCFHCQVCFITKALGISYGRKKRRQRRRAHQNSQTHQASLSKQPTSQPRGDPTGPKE

Genome polyprotein = Genome polyprotein (dengue virus type 2, UniProt P29990); assay: Dengue-2 NS5 methyltransferase inhibitors, primary screen, biochemical, confirmation dose response (AID 588689); format: functional
[21] = THP-1 cell cytotoxicity, dose response, cytotoxicity control for Vif-APOBEC3G degradation inhibitor project, THP-1 cells (AID 1117359); format: functional; conditions: Human immunodeficiency virus 1, THP-1
Bcl-2-related protein A1 [22] = molecular target: T5, Bcl-2-related protein A1 (Mus musculus, UniProt Q07440); assay: Bfl-1 inhibitors blocking BH3 peptide binding, confirmation, biochemical, TR-FRET, mouse Bfl-1 (AID 621);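 further: TR-FRET binding of GST-Bfl-1 to FITC-labelled Bid peptide via terbium antibody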
T5 sequence (Q07440 whole entry): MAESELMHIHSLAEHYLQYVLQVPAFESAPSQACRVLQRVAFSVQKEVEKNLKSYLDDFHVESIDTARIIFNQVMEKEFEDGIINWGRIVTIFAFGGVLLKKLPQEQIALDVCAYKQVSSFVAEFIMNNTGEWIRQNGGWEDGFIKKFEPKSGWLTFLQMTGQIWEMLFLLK

[23] = HepG2 cell cytotoxicity, dose response, cytotoxicity control, plate reader, cherry-pick, antagonist series (AID 743416); format: functional, cell-based
[24] = MC4R antagonists, dose response, counter-screen for LGR2 antagonist project, cell-based, plate reader, cherry pick (AID 743444); format: functional;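 further: transfected HEK 293 cells stimulated with alpha-MSH peptide; potency of inhibitors of the alpha-MSH evoked signal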
[25] = LGR2 antagonists, dose response, cell-based, HEK293, CRE-luciferase reporter, cherry pick, set 2 (AID 743343); format: functional;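 further: transfected cells were stimulated with diluted bursicon conditioned medium after compound addition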
Bcl-2-related protein A1 [26] = molecular target: T5, Bcl-2-related protein A1; assay: Bfl-1 binding inhibitors, SAR follow-up, biochemical, fluorescence polarization (AID 1070)
[27] = A549 cell cytotoxicity, dose response, cytotoxicity control, plate reader, cherry-pick, antagonist series (AID 743412); format: functional, cell-based

## CCn1c(=O)n(CC(=O)Nc2cc(OC)c(OC)c(OC)c2)c(=O)c2ccccc21
[1]
  EC50: 13.2 µM (not active)

## C=C(C)[C@@]12OC3(c4ccccc4)O[C@@H]1C1[C@@H]4O[C@]4(CO)[C@@H](O)[C@]4(O)C(=O)C(C)=C[C@H]4[C@@]1(O3)[C@H](C)[C@H]2OC(=O)/C=C/C=C/c1ccccc1 (some centres not stated)
[2]
  EC50: < 0.1 µM (active)
Vero [3]
  CC50: > 100 µM (active)
Vero [4]
  CC50: > 25 µM (active)
[5]
  IC50: > 80 µM (inactive)
[6]
  EC50: > 60 µM (not active)
cells
  EC50: < 0.004 µM (active)

## COC(=O)C(Cc1ccc(N(CCCl)CCCl)cc1)/N=C/c1ccccc1O (configuration not stated)
[7]
  IC50: 0.103 µM (active)
[5]
  IC50: > 80 µM (inactive)
[8]
  AC50: 0.899 µM (active)

## O=C(Sc1nnc(-c2ccccc2)o1)N1c2ccccc2Sc2ccccc21
[9]
  AC50: 1.25 µM (active)
[10]
  EC50: 34.9 µM (inactive)
Protein RecA
  EC50: 0.804 µM (active)
[11]
  EC50: 20.8 µM (not active)
[12]
  EC50: > 79.4 µM (not active)
[13]
  EC50: 6.64 µM (active)
Fatty acid synthase [14]
  IC50: 16.3 µM (active)
[15]
  CC50: > 40 µM (active)
Fatty acid synthase [16]
  IC50: 10.4 µM (active)
[17]
  EC50: 5.48 µM (active)
[18]
  IC50: > 100 µM (active)

## Cc1ccc(CNc2ccc(O)cc2)cc1
[19]
  IC50: > 80 µM (inactive)
[20]
  IC50: > 50.9 µM (active)
Protein Tat
  IC50: 25.5 µM (inconclusive)
Genome polyprotein
  IC50: 92.5 µM (active)
[21]
  CC50: > 40 µM (active)

## Fc1ccc(-n2nnc(-c3cnc4ccccc4c3)n2)cc1
Bcl-2-related protein A1 [22]
  IC50: > 100 µM (not active)
[23]
  AC50: > 52 µM (inactive)
[24]
  AC50: 2.15 µM (active)
[25]
  AC50: 1.23 µM (active)
Bcl-2-related protein A1 [26]
  IC50: > 100 µM (not active)
[27]
  AC50: 39.5 µM (active)
